In data set [1] the test system is cervical epithelioid carcinoma (HeLa). The data set can be described thus: MTT cytotoxicity assay, HeLa. It counts as cell-based, human. The following applies: 72 h of incubation. On the technique in general: Tetrazolium assays rely on reduction of a dye to a coloured formazan, in cell work by metabolically active cells.
The test system of data set [2] is hepatocellular carcinoma (HepG2). Kind of data set: MTT cytotoxicity assay, HepG2. Format: cell-based, human. Particulars: 72 h of incubation.
In another data set the test system is breast carcinoma (MCF-7). The data set can be described thus: MTT cytotoxicity assay, MCF-7. It counts as cell-based, human. Particulars: 72 h of incubation.
The test system of data set [3] is human nasopharyngeal carcinoma (HONE1). The data set can be described thus: MTT cytotoxicity assay, HONE1. Particulars: 72 h of incubation. It counts as cell-based.
Data set [4] deals with human nasopharyngeal carcinoma (SUNE1). The data set can be described thus: MTT cytotoxicity assay, SUNE1. It counts as cell-based. Particulars: 72 h of incubation.
The test system of a further data set is H1975. Kind of data set: MTT cytotoxicity assay, H1975. It counts as cell-based, human. Particulars: 72 h of incubation.
The next data set has as its system lung carcinoma (HCC827). Kind of data set: MTT cytotoxicity assay, HCC827. It counts as cell-based, human. The following applies: 72 h of incubation.
A short description of data set [5]: Reactivity towards physiological thiols (ESI-MS monitoring of reaction with GSH). Format: physicochemical. The following applies: GSH […]10^−5M or 5×10^−5M, about 45 min. On the procedure: FIGS. 6A-C show stability tests: (A) UV/vis absorption of 1 in PBS (containing 5% acetonitrile, v/v) at different time point; (B) Linear response of ESI-MS intensity of 1 versus concentration; (C) Kinetics analysis of reaction of 1 with GSH, auranofin was used as a reference compound. Unreacted compound percentage was calculated by combined MS intensity of each 10 scans at different time point then divided by pre-determined MS intensity of initial concentration. It was believed that high reactivity of the gold(I) anticancer drugs towards physiological thiols may fail the drugs targeting to the solid tumor tissue thus hamper the application for in vivo cancer treatment. As a result, high resolution ESI-MS was applied to monitor the reaction of 1 with thiol-containing GSH.

Results on three compounds are retold here after US9238659B2, “Method of using binuclear gold (I) compounds for cancer treatment” (University of Hong Kong, priority 2012, dated 2016).

`CCN(CC)C1=[S+][Au-][P+](C2CCCCC2)(C2CCCCC2)C[P+](C2CCCCC2)(C2CCCCC2)[Au-][S]1.O=S(=O)(O)C(F)(F)F` [Compound 3, [Au2-dcpm-dedt] (OTf)]: the IC50 in data set [1] was less than 390 nM; in data set [2], 540 ± 70 nM; in the data set with breast carcinoma (MCF-7), 410 ± 200 nM; in data set [3], 410 ± 70 nM; in data set [4], 670 ± 280 nM.
Take `CCN(CC)C1=[S+][Au-][P+](c2ccccc2)(c2ccccc2)C[P+](c2ccccc2)(c2ccccc2)[Au-][S]1.O=S(=O)(O)C(F)(F)F` [Compound 4, [Au2-dppm-dedt] (OTf)]: the IC50 was 630 nM in data set [1]; 950 ± 580 nM in data set [2]; 500 ± 60 nM with breast carcinoma (MCF-7); 590 ± 40 nM in data set [3]; 1620 ± 440 nM in data set [4]; less than 190 nM in the data set with H1975. This compound had an IC50 in the data set with lung carcinoma (HCC827) of 480 ± 60 nM.
`CC(=O)OC[C@H]1O[C@@H]([S-])[C@H](OC(C)=O)[C@@H](OC(C)=O)[C@@H]1OC(C)=O.CCP(CC)CC.[Au+]` [auranofin, reference compound]: the “reaction towards GSH (reference compound)” value in data set [5] is given as “fast reaction towards GSH”.

Usually IC50 stands for the midpoint of a concentration-inhibition curve.
